Laboratory results: patent publication US7329665B2, “Quinazolinone derivative” (Dainippon Sumitomo Pharma Co., Ltd., priority 2001, dated 2008)

System: rhythmic contractions of the bladder
Test: Effect on rhythmic contractions of bladder (cystometry in urethane-anesthetized rats, i.v. administration)
Format: in vivo
Settings: female SD-rats under urethane anesthesia, intravenous, ascending doses in 10% PEG, relative to vehicle; for Contractile amplitude: ED30: mean amplitude of bladder contraction during 10-minute period after administration; for Contractile frequency: ED30: mean frequency of bladder contraction during 10-minute period after administration
Description: Effect on Rhythmic Contractions of Bladder This test was carried out by some modification of the method of Hedge et al. [Hedge S S. Choppin A. Bonhaus D. Briaud S. Loeb M. Moy T M. Loury D. Eglen R M., British Journal of Pharmacology. 120(8):1409-18, 1997]. Female SD-rats were subjected to abdominal midline incision under urethane anesthesia (0.6 g/kg, s.c. and i.p.), the ureters were ligated, and its kidney side was cut off. A polyethylene cannula was inserted from the urethra into the bladder and the urethra was ligated. The other end of the cannula was connected to a three way connector, to which a constant infusion pump having a 20 ml attached syringe and a pressure transducer for cystometry were also connected. A cannula for administration of a test sample was inserted into the jugular vein and a cannula for measurement of blood pressure and heart rate was inserted into the carotid artery. The intravesical pressure, blood pressure and heart rate were continuously recorded on a polygraph. Physiological saline was infused until rhythmic contractions of the bladder were observed, and after having confirmed stable rhythmic contractions of the bladder, vehicle (10% PEG) and solutions of a test sample dissolved in 10% PEG were administered intravenously in turn from its lower dose. The mean of amplitude and frequency of bladder contraction during a 10-minute period after administration were measured at each dose level, and their rates of change relative to the values obtained when the vehicle alone was administered were calculated, thereby determining ED30 values for the contractile amplitude and the contractile frequency, respectively. It is apparent from Table 1 that the compounds of the present invention depressed not only the contractile amplitude but also the contractile frequency.

## O=C1Nc2ccccc2C(c2ccccc2)N1C1CCN(Cc2cccc(OCC(F)(F)F)c2)CC1 (stereo not shown) [Example 2-4, Optically Active Form of 3-{1-[3-(2,2,2-trifluoroethoxy)phenylmethyl]piperidin-4-yl}-4-phenyl-3,4-dihydro-2(1H)-quinazolinone]
  Contractile amplitude: ED30: 1.42 mg/kg
  Contractile frequency: ED30: 1.35 mg/kg

## CC(C)Oc1cccc(CN2CCC(N3C(=O)Nc4ccccc4C3c3ccccc3)CC2)c1 (stereo not shown) [Example 2-3, Optically Active Form of 3-[1-(3-isopropoxyphenylmethyl)piperidin-4-yl]-4-phenyl-3,4-dihydro-2(1H)-quinazolinone]
  Contractile amplitude: ED30: 1.10 mg/kg
  Contractile frequency: ED30: 1.54 mg/kg

## Cc1cccc(CN2CCC(N3C(=O)Nc4ccccc4C3C(C)C)CC2)n1 (single isomer, unassigned; (+)) [Example 3, (+)-4-isopropyl-3-{1-[(6-methyl-2-pyridinyl)methyl]piperidin-4-yl}-3,4-dihydro-2(1H)-quinazolinone]
  Contractile amplitude: ED30: 0.94 mg/kg
  Contractile frequency: ED30: 1.79 mg/kg

## CCCc1cccc(CN2CCC(N3C(=O)Nc4ccccc4C3c3ccccc3)CC2)c1 (stereo not shown) [Example 2-1, Optically Active Form of 3-[1-(3-propylphenylmethyl)piperidin-4-yl]-4-phenyl-3,4-dihydro-2(1H)-quinazolinone]
  Contractile amplitude: ED30: 1.09 mg/kg
  Contractile frequency: ED30: 0.70 mg/kg

## O=C1Nc2ccccc2C(c2ccccc2)N1C1CCN(Cc2cccc(OC(F)(F)F)c2)CC1 (single isomer, unassigned; (+)) [Example 1, (+)-3-{1-[3-(trifluoromethoxy)benzyl]piperidin-4-yl}-4-phenyl-3,4-dihydro-2(1H)-quinazolinone]
  Contractile amplitude: ED30: 1.71 mg/kg
  Contractile frequency: ED30: 1.31 mg/kg
